Experimental data from BindingDB's records for doi:10.1074/jbc.M114.574061 (AstraZeneca R&D Boston, 2014).
pIC50: −log10 of the molar value.

Legend:
Test in all cases: Aminoacylation Assay
Conditions in all cases: pH 8
[1] = molecular target: Phenylalanine--tRNA ligase alpha/beta subunit (Pseudomonas aeruginosa (strain ATCC 15692 / PAO1 / 1C / PRS 101 / LMG12228), UniProt A0A8B5A132+Q9I0A4)
Method: (§1) Compounds were solubilized in DMSO. Serial 2-fold dilutions covering two concentration ranges, 10 mM to 19.5 μM and 100 μM to 195 nM, were prepared. 0.6 μl/well of the diluted compound solutions (50× the final assay concentration) were added to white 384-well polystyrene assay plates (Thermo Fisher Scientific/Matrix Technology Corp., Hudson, NH). Uninhibited control wells (MAX)received 2 μl of 30% (v/v) DMSO. Baseline wells (MIN) received 2 μl of a solution containing 30% (v/v)DMSO and 15 mM L-phenylalanine (Sigma-Aldrich). Assays were performed in a buffer consisting of 50 mM Tris-HCl (pH 8.0), 50 mM NH4Cl, 10 mM MgCl2, 2 mM DTT, 0.005% Tween 20 (Surfact-Amps-20, Thermo Fisher Scientific/Pierce Protein Research products, Suwanee, GA), and 0.1 mM EDTA-NaOH (pH 8.0). Compounds were preincubated with 15 μl/well of either 2 nM E. coli PheRS, 2 nM H. influenzae PheRS, or 0.8 nM P. aeruginosa PheRS in buffer for 30 min at 2× final assay concentrations. The reactions were initiated with 15 μl/well of a 2× substrate solution in buffer containing 2 μM E. coli phenylalanine tRNA (Sigma-Aldrich), 100 μM ATP, and 2 μM [3H]Phe with a specific radioactivity of 6.3 Ci/mmol (PerkinElmer Life Sciences). The reactions were quenched after 30 min with 15 μl/well of a solution containing 4 mg/ml PVT/PEI/WGA type A SPA beads (PerkinElmer Life Sciences), 262 mM sodium citrate (pH 2.0), and 150 mM NaCl. The plates were sealed with transparent film (PerkinElmer Life Sciences). The beads were allowed to settle for a minimum of 2 h before scintillation counting with a Top-Count plate reader (PerkinElmer Life Sciences). [3H] counts (CPM) for aminoacylated tRNA were measured for 1 min/well.

[2] = molecular target: Phenylalanine--tRNA ligase alpha/beta subunit (Escherichia coli (strain K12), UniProt P07395+P08312)
Phenylalanine--tRNA ligase alpha/beta subunit (Escherichia coli (strain K12), UniProt P07395+P08312), sequence (P08312 whole entry): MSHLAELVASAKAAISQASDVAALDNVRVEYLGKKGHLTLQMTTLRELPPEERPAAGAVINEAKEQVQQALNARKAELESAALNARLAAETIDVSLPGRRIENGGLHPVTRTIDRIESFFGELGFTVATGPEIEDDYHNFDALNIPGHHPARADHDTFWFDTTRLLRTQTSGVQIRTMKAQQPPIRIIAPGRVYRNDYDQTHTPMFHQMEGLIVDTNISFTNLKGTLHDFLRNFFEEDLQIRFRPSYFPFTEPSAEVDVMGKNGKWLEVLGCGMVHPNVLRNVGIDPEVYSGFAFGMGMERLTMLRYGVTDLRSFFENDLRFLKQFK
Phenylalanine--tRNA ligase alpha/beta subunit (Escherichia coli (strain K12), UniProt P07395+P08312), sequence (P07395 whole entry): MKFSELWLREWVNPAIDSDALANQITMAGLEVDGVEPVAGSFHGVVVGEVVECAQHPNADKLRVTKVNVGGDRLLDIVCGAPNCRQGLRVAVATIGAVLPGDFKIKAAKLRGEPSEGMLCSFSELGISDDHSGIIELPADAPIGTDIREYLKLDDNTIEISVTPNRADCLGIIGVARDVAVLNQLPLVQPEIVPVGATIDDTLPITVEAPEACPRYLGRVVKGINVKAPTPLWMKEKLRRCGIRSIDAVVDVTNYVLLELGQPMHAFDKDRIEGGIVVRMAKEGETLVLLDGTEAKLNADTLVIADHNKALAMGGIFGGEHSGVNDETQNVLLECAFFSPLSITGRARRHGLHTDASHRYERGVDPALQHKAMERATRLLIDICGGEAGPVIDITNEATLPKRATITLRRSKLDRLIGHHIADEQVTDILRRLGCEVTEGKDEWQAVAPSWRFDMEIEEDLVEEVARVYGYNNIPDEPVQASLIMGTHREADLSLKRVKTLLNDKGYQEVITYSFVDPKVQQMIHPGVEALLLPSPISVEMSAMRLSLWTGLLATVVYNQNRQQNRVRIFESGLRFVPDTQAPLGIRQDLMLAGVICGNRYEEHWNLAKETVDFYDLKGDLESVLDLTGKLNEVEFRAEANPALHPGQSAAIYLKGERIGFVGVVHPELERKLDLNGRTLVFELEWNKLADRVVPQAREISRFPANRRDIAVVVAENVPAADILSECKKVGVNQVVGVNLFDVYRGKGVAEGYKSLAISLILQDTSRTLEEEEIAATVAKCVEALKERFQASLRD
Method: as §1

[3] = molecular target: Phenylalanine--tRNA ligase alpha/beta subunit (Pseudomonas aeruginosa, UniProt Q9I0A3+Q9I0A4)
Phenylalanine--tRNA ligase alpha/beta subunit (Pseudomonas aeruginosa, UniProt Q9I0A3+Q9I0A4), sequence (Q9I0A3 whole entry): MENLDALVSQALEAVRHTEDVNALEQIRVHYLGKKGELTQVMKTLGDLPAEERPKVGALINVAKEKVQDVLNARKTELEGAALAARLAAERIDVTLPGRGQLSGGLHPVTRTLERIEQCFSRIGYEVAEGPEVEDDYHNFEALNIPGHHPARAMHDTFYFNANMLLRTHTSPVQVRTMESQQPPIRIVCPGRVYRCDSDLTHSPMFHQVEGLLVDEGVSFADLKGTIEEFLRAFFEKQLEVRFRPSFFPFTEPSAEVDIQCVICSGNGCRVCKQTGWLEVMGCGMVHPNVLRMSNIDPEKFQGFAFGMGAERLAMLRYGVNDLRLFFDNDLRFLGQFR
Phenylalanine--tRNA ligase alpha/beta subunit (Pseudomonas aeruginosa, UniProt Q9I0A3+Q9I0A4), sequence (Q9I0A4 whole entry): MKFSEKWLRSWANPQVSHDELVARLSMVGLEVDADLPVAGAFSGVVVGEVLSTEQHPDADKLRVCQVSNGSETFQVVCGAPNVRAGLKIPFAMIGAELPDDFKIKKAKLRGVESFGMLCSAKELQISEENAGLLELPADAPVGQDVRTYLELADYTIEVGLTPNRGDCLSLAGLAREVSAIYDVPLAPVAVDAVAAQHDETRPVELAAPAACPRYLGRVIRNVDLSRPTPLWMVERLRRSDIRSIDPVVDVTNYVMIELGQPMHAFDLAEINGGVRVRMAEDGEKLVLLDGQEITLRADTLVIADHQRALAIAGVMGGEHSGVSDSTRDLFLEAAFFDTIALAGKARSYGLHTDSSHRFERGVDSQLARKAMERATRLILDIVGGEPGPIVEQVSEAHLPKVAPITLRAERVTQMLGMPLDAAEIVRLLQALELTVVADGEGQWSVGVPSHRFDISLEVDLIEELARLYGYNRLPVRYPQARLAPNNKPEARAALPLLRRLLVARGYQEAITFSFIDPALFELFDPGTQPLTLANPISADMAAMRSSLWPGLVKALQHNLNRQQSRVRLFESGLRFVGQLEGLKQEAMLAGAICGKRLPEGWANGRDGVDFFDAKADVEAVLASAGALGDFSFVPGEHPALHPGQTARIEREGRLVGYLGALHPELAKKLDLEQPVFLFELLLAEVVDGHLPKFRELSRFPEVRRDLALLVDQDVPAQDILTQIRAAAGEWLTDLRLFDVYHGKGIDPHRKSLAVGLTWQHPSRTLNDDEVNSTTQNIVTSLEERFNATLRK
Method: as §1

Phenylalanine--tRNA ligase alpha/beta subunit (Pseudomonas aeruginosa (strain ATCC 15692 / PAO1 / 1C / PRS 101 / LMG12228), UniProt A0A8B5A132+Q9I0A4), sequence (A0A8B5A132 whole entry): as the sequence (Q9I0A3 whole entry) above
Phenylalanine--tRNA ligase alpha/beta subunit (Pseudomonas aeruginosa (strain ATCC 15692 / PAO1 / 1C / PRS 101 / LMG12228), UniProt A0A8B5A132+Q9I0A4), sequence (Q9I0A4 whole entry): as the sequence (Q9I0A4 whole entry) above

## N#CCNC(=O)c1csc(COc2ccc(Cl)cc2)n1 [2-((4-Chlorophenoxy)methyl)-N-(cyanomethyl)thiazole-4-carboxamide (4b)]
[1]
  pIC50: 4.89
[2]
  pIC50: 7.00

## CNC(=O)COc1cccc(Nc2cc(C#N)ccn2)c1 [2-(3-(4-Cyanopyridin-2-ylamino)phenoxy)-N-methylacetamide (2b)]
[1]
  pIC50: 4.39
[2]
  pIC50: 6.25

## COc1cccc(-c2cc(C(F)(F)F)n[nH]2)c1 [5-(3-Methoxyphenyl)-3-(trifluoromethyl)-1H-pyrazole (3a)]
[3]
  pIC50: 5.00
[2]
  pIC50: 7.22

## COc1cccc(-c2ncc(C(F)(F)F)[nH]2)c1 [2-(3-methoxyphenyl)-5-(trifluoromethyl)-1H-imidazole (3d)]
[3]
  pIC50: < 3.70
[2]
  pIC50: 4.80

## CS(=O)(=O)C1(CCNC(=O)COc2cccc(-c3cc(C(F)(F)F)[nH]n3)c2)CC1 [N-(2-(1-(methylsulfonyl)cyclopropyl)ethyl)-2-(3-(5-(trifluoromethyl)-1H-pyrazol-3-yl)phenoxy)acetamide (3e)]
[3]
  pIC50: 5.38
[2]
  pIC50: 7.15

## NS(=O)(=O)CCNC(=O)c1csc(COc2ccc(Cl)cc2)n1 [2-((4-Chlorophenoxy)methyl)-N-(2-sulfamoylethyl)thiazole-4-carboxamide (4c)]
[1]
  pIC50: 4.59
[2]
  pIC50: 6.72

## Cc1ccc(OCc2nc(C(=O)NC3CCS(=O)(=O)C3)cs2)cc1 (stereo unspecified) [N-(1,1-dioxothiolan-3-yl)-2-[(4-methylphenoxy)methyl]thiazole-4-carboxamide (4a)]
[1]
  pIC50: 4.10
[2]
  pIC50: 5.85

## O=C(COc1cccc(Nc2cc(Cl)ccn2)c1)NC1CCS(=O)(=O)C1 (stereo unspecified) [2-[3-[(4-Chloro-2-pyridyl)amino]phenoxy]-N-(1,1-dioxothiolan-3-yl)acetamide (2c)]
[1]
  pIC50: 4.47
[2]
  pIC50: 7.00

## O=C(Nc1cccc(S(=O)(=O)N2CCN(c3ccccn3)CC2)c1)Nc1nccs1 [1-(3-(4-(Pyridin-2-yl)piperazin-1-ylsulfonyl)phenyl)-3-(thiazol-2-yl)urea (1a)]
[1]
  pIC50: 7.66
[2]
  pIC50: 8.57

## CCOC(=O)COc1cccc(-c2cc(C(F)F)n[nH]2)c1 [Ethyl 2-(3-(3-(difluoromethyl)-1H-pyrazol-5-yl)phenoxy)acetate (3c)]
[3]
  pIC50: 4.23
[2]
  pIC50: 6.00

## CNC(=O)COc1cccc(Nc2cc(Cl)ccn2)c1 [2-(3-(4-Chloropyridin-2-ylamino)phenoxy)-N-methylacetamide (2a)]
[1]
  pIC50: 4.09
[2]
  pIC50: 5.85

## CCOC(=O)COc1cccc(-c2cc(C(F)(F)F)[nH]n2)c1 [Ethyl 2-(3-(5-(trifluoromethyl)-1H-pyrazol-3-yl)phenoxy)acetate (3b)]
[3]
  pIC50: 4.96
[2]
  pIC50: 7.10

## O=C(Nc1cccc(S(=O)(=O)NCCc2c[nH]c3ccccc23)c1)Nc1nccs1 [N-(2-(1H-indol-3-yl)ethyl)-3-(3-thiazol-2-ylureido)benzenesulfonamide (1b)]
[3]
  pIC50: 7.89
[2]
  pIC50: 8.66
